According to patent US11078188B2, “Dihydroquinoxaline bromodomain recognition protein inhibitor, preparation method and use thereof” (SHANGHAI INSTITUTE OF MATERIA MEDICA, CHINESE ACADEMY OF …, priority 2017, dated 2021):

Assays:
[1] = test system: human myeloma cells MM.1S; test: MM.1S cell viability, CCK-8 method; assay type: cell-based; settings: for IC50: 72 h treatment, CCK-8; for inhibitory activity against the MM.1S cell line (in words): compared with positive (+)-JQ1
Procedure: The MM.1S cell line was tested for cell viability. The test methods were as follows: human myeloma cells MM.1S were treated with compound for 72 h, and the proliferation inhibition effect and degree of the compound were detected by CCK-8 method.

[2] = Metabolic stability in human liver microsomes; assay type: in vitro ADME; settings: human liver microsomes 0.5 mg/ml, 1 μM compound, NADPH
Procedure: The system which was 150 μl of human liver microsomes (final concentration: 0.5 mg/ml) was used for metabolic stability incubation. The system contained reduced coenzyme II (NADPH) (final concentration: 1 mM) and 1 μM compound, positive control or negative control. The reaction was terminated with acetonitrile containing (imiprozine, batch number: 3221; tinidazole, given) at 0 min, 5 min, 10 min, and 30 min, respectively. The mixture was vortexed for 10 min, centrifuged at 15000 rpm for 10 min, and 50 μl of the supernatant was injected into a 96-well plate. The metabolic stability of the compound was calculated by measuring the relative reduction in the original medicament.
(§1) HLM Clint (μl/min/mg) refers to the clearance rate of compounds in human liver microsomes having a unit of μl/min/mg; mLM Clint (μl/min/mg) refers to the clearance rate of compounds in mouse liver microsomes having a unit of μl/min/mg; HLM t1/2 (min) refers to the half-life of the compound in human liver microsomes having a unit of minutes; mLM t1/2 (min) refers to the half-life of the compound in mouse liver microsomes having a unit of minutes. TDI means that the mechanism inhibition test of compounds on CYP enzyme evaluates whether the compound has time-dependent inhibition of the enzyme.

[3] = Metabolic stability in mouse liver microsomes; assay type: in vitro ADME
3A4 = 3A4 (Homo sapiens (Human), UniProt P08684); test: Direct inhibition test (DI test), CYP 3A4; assay type: in vitro ADME; settings: human liver microsomes 0.2 mg/ml, 20 min; for Direct inhibition rate (%) 3A4, second value: second of two values a/b (two 3A4 probes midazolam, testosterone; assignment not given)
Procedure: The system which was 100 μl of human liver microsomes (final concentration: 0.2 mg/ml) was used for direct inhibition incubation. The system contained NADPH (final concentration: 1 mM), 10 μl compound, positive inhibitor cocktail (ketoconazole, 10 μl, quinidine 10 μl, sulfaphenazole 100 μl, naphthoflavone 10 μl, tranylcypromine 1000 μl), negative control 10 μl DMSO and mixed probe substrate (midazolam 10 μl, testosterone 100 μl, dextromethorphan 10 μl, diclofenac 20 μl, phenacetin 100 μl, mephenytoin 100 μl). The reaction was stopped after the system was incubated for 20 min. The relative activity of the enzyme was calculated by measuring the relative amount of production of the metabolite.

CYP enzyme = test: Mechanistic inhibition test (TDI test); assay type: in vitro ADME; settings: human liver microsomes 0.2 mg/ml; mechanism inhibition if kobs greater than 200
Procedure: The system which was 200 μl of human liver microsomes (final concentration: 0.2 mg/ml) was used for mechanistic inhibition incubation. The system contained 10 μl compound, mixed positive inhibitor (Troleandomycin 10 μl, Paroxetine 10 μl, Tienilic acid 10 μM, Furafylline 10 μl) or 10 μl negative control PRO. After NADPH (final concentration: 1 mM) or PBS was added, the system was incubated for 0 min, 5 min, 10 min and 30 min, then NADPH (final concentration: 1 mM) and mixed probe substrate (Midazolam 5 μM, Testosterone 50 μl, Dextromethophan 5 μM, Diclofenac 10 μl, Phenacetin 5 0 μM, S-(+)-mephenytoin 50 μl) were added and incubated for 10 min. Then the reaction was stopped. The test for positive inhibitor CYP2C19 was carried out alone, the inhibitor S-(+)-fluoxetine was 100 μM. The enzyme activity was calculated by measuring the relative production amount of metabolite. kobs was calculated.
as §1

Sequence of 3A4 (P08684 whole entry): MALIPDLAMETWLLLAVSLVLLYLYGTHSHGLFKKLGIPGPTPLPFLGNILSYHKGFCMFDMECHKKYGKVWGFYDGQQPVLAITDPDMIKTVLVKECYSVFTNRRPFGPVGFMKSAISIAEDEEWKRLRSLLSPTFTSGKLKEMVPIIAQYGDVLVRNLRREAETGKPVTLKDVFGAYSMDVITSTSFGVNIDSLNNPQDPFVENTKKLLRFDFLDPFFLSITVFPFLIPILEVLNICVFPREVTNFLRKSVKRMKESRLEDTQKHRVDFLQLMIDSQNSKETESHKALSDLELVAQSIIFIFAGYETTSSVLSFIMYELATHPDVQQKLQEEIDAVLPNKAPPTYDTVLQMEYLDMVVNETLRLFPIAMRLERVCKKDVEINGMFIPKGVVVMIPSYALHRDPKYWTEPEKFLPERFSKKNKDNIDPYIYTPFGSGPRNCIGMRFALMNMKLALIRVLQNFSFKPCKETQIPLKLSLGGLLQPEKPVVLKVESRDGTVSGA

Row | SMILES | IC50 ([1]; Homo sapiens, MM1.S) [nM] | inhibitory activity against the MM.1S cell line (in words) [1] | microsomal CLint at 1 μM ([2]; read-out: HLM Clint) [µL/min/mg] | half-life at 1 μM ([2]; read-out: HLM t1/2) [min] | half-life at 1 μM ([3]; read-out: half-lives in mouse liver microsomes) [min] | microsomal CLint at 1 μM ([3]; read-out: mLM Clint) [µL/min/mg] | Direct inhibition rate (%) 3A4, second value (3A4) [%] | TDI (CYP enzyme) | IC50 [1] [nM] | HLM Clint [2] [µL/min/mg] | HLM t1/2 [2] [min] | MLM t1/2 [3] [min] | mLM Clint [3] [µL/min/mg] | Direct inhibition rate (%) 3A4, first value (3A4; first of two values a/b (two 3A4 probes midazolam, testosterone; assignment not given)) [%]
1 | Cc1ccc(-n2nc(C(=O)N3C[C@@H](C)N[C@@H](C)C3)nc2-c2ccc3c(c2)N(C2CCCC2)[C@H](C)C(=O)N3C)cc1 [Example 12] | 5.42 ± 1.14 | better inhibitory activity against the MM.1S cell line than the positive (+)-JQ1 | 52 | 27 | 193 | 7 | 28 | no |  |  |  |  |  | 
2 | Cc1ccc(-n2nc(C(=O)N3CCN(C)CC3)nc2-c2ccc3c(c2)N(C2CCCC2)[C@H](C)C(=O)N3C)cc1 [Example 6] |  | better inhibitory activity against the MM.1S cell line than the positive (+)-JQ1 |  |  |  |  | 31 | no | 13.6 ± 5.45 | 61 | 23 | 41 | 34 | 22
